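The concentration for 50% growth inhibition is given as GI50. The concentration for full growth arrest is given as TGI.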
Columns and labels:
Assay in all cases: NCI anticancer screen, dose series, 384-well format
BT-549 breast = system: BT-549 breast
SF-268 CNS = system: SF-268 CNS
SK-MEL-5 melanoma = system: SK-MEL-5 melanoma
T-47D breast = system: T-47D breast
IGROV1 ovarian = system: IGROV1 ovarian
HT29 colon = system: HT29 colon
RXF 393 renal = system: RXF 393 renal
SF-295 CNS = system: SF-295 CNS
HL-60(TB) leukemia = system: HL-60(TB) leukemia
MDA-MB-468 breast = system: MDA-MB-468 breast
MDA-MB-435 melanoma = system: MDA-MB-435 melanoma
LOX IMVI melanoma = system: LOX IMVI melanoma
SN12C renal = system: SN12C renal
OVCAR-4 ovarian = system: OVCAR-4 ovarian
HCT-116 colon = system: HCT-116 colon
UACC-62 melanoma = system: UACC-62 melanoma
HCT-15 colon = system: HCT-15 colon
NCI-H226 lung = system: NCI-H226 lung
NCI-H460 NSCLC = system: NCI-H460 NSCLC
OVCAR-3 ovarian = system: OVCAR-3 ovarian
MOLT-4 leukemia = system: MOLT-4 leukemia
EKVX NSCLC = system: EKVX NSCLC
NCI-H522 lung = system: NCI-H522 lung
SNB-75 CNS = system: SNB-75 CNS
HS 578T breast = system: HS 578T breast
PC-3 prostate = system: PC-3 prostate
TK-10 renal = system: TK-10 renal
OVCAR-5 ovarian = system: OVCAR-5 ovarian
KM12 colon = system: KM12 colon
MALME-3M melanoma = system: MALME-3M melanoma
MCF7 breast = system: MCF7 breast
SNB-19 CNS = system: SNB-19 CNS
HOP-62 NSCLC = system: HOP-62 NSCLC
SW-620 colon = system: SW-620 colon
ACHN renal = system: ACHN renal
M14 melanoma = system: M14 melanoma
MDA-MB-231 breast = system: MDA-MB-231 breast
SR leukemia = system: SR leukemia
UACC-257 melanoma = system: UACC-257 melanoma
NCI-H23 lung = system: NCI-H23 lung
UO-31 renal = system: UO-31 renal
COLO 205 colon = system: COLO 205 colon
A549 NSCLC = system: A549 NSCLC
A498 renal = system: A498 renal
DU-145 prostate = system: DU-145 prostate
SF-539 CNS = system: SF-539 CNS
HCC-2998 colon = system: HCC-2998 colon
OVCAR-8 ovarian = system: OVCAR-8 ovarian
NCI-H322M lung = system: NCI-H322M lung
RPMI-8226 leukemia = system: RPMI-8226 leukemia
U251 glioblastoma = system: U251 glioblastoma
786-0 renal = system: 786-0 renal
NCI/ADR-RES ovarian = system: NCI/ADR-RES ovarian
CAKI-1 renal = system: CAKI-1 renal
HOP-92 NSCLC = system: HOP-92 NSCLC
SK-MEL-28 melanoma = system: SK-MEL-28 melanoma
SK-OV-3 ovarian = system: SK-OV-3 ovarian

Cc1ccc(-c2cc(C(F)(F)F)nn2-c2ccc(S(N)(=O)=O)cc2)cc1
GI50 (BT-549 breast): 15.9 µM | TGI (BT-549 breast): 29.3 µM | GI50 (SF-268 CNS): 16.4 µM | TGI (SF-268 CNS): 30 µM | GI50 (SK-MEL-5 melanoma): 13.8 µM | TGI (SK-MEL-5 melanoma): 26.7 µM | GI50 (T-47D breast): 11.4 µM | TGI (T-47D breast): 23.7 µM | GI50 (IGROV1 ovarian): 16.3 µM | TGI (IGROV1 ovarian): 29.8 µM | GI50 (HT29 colon): 16.1 µM | TGI (HT29 colon): 29.6 µM | GI50 (RXF 393 renal): 14.4 µM | TGI (RXF 393 renal): 27.4 µM | GI50 (SF-295 CNS): 16.5 µM | TGI (SF-295 CNS): 30.1 µM | GI50 (HL-60(TB) leukemia): 20.5 µM | TGI (HL-60(TB) leukemia): 34.8 µM | GI50 (MDA-MB-468 breast): 13.6 µM | TGI (MDA-MB-468 breast): 26.5 µM | GI50 (MDA-MB-435 melanoma): 19.3 µM | TGI (MDA-MB-435 melanoma): 33.4 µM | GI50 (LOX IMVI melanoma): 17.6 µM | TGI (LOX IMVI melanoma): 31.4 µM | GI50 (SN12C renal): 15.2 µM | TGI (SN12C renal): 28.6 µM | GI50 (OVCAR-4 ovarian): 11.8 µM | TGI (OVCAR-4 ovarian): 24.1 µM | GI50 (HCT-116 colon): 15.2 µM | TGI (HCT-116 colon): 28.5 µM | GI50 (UACC-62 melanoma): 18.4 µM | TGI (UACC-62 melanoma): 32.4 µM | GI50 (HCT-15 colon): 14.7 µM | TGI (HCT-15 colon): 27.9 µM | GI50 (NCI-H226 lung): 13 µM | TGI (NCI-H226 lung): 25.6 µM | GI50 (NCI-H460 NSCLC): 15.3 µM | TGI (NCI-H460 NSCLC): 28.7 µM | GI50 (OVCAR-3 ovarian): 14.3 µM | TGI (OVCAR-3 ovarian): 27.4 µM | GI50 (MOLT-4 leukemia): 9.05 µM | TGI (MOLT-4 leukemia): 21.3 µM | GI50 (EKVX NSCLC): 14.2 µM | TGI (EKVX NSCLC): 27.2 µM | GI50 (NCI-H522 lung): 13.6 µM | TGI (NCI-H522 lung): 26.5 µM | GI50 (SNB-75 CNS): 10.8 µM | TGI (SNB-75 CNS): 23 µM | GI50 (HS 578T breast): 14.5 µM | TGI (HS 578T breast): 27.7 µM | GI50 (PC-3 prostate): 14.6 µM | TGI (PC-3 prostate): 27.8 µM | GI50 (TK-10 renal): 16.7 µM | TGI (TK-10 renal): 30.4 µM | GI50 (OVCAR-5 ovarian): 16.2 µM | TGI (OVCAR-5 ovarian): 29.7 µM | GI50 (KM12 colon): 15.8 µM | TGI (KM12 colon): 29.2 µM | GI50 (MALME-3M melanoma): 16.2 µM | TGI (MALME-3M melanoma): 29.8 µM | GI50 (MCF7 breast): 14.2 µM | TGI (MCF7 breast): 27.2 µM | GI50 (SNB-19 CNS): 16.6 µM | TGI (SNB-19 CNS): 30.4 µM | GI50 (HOP-62 NSCLC): 15.3 µM | TGI (HOP-62 NSCLC): 28.6 µM | GI50 (SW-620 colon): 17.1 µM | TGI (SW-620 colon): 30.9 µM | GI50 (ACHN renal): 15.1 µM | TGI (ACHN renal): 28.3 µM | GI50 (M14 melanoma): 19 µM | TGI (M14 melanoma): 33.1 µM | GI50 (MDA-MB-231 breast): 15.7 µM | TGI (MDA-MB-231 breast): 29.2 µM | GI50 (SR leukemia): 29 µM | TGI (SR leukemia): 43.8 µM | GI50 (UACC-257 melanoma): 16.6 µM | TGI (UACC-257 melanoma): 30.3 µM | GI50 (NCI-H23 lung): 15.6 µM | TGI (NCI-H23 lung): 29 µM | GI50 (UO-31 renal): 14.7 µM | TGI (UO-31 renal): 27.9 µM | GI50 (COLO 205 colon): 16.2 µM | TGI (COLO 205 colon): 29.7 µM | GI50 (A549 NSCLC): 14.4 µM | TGI (A549 NSCLC): 27.5 µM | GI50 (A498 renal): 15.6 µM | TGI (A498 renal): 28.9 µM | GI50 (DU-145 prostate): 15 µM | TGI (DU-145 prostate): 28.2 µM | GI50 (SF-539 CNS): 16.7 µM | TGI (SF-539 CNS): 30.4 µM | GI50 (HCC-2998 colon): 14.9 µM | TGI (HCC-2998 colon): 28.1 µM | GI50 (OVCAR-8 ovarian): 15.6 µM | TGI (OVCAR-8 ovarian): 28.9 µM | GI50 (NCI-H322M lung): 15.9 µM | TGI (NCI-H322M lung): 29.4 µM | GI50 (RPMI-8226 leukemia): 12.1 µM | TGI (RPMI-8226 leukemia): 24.5 µM | GI50 (U251 glioblastoma): 16 µM | TGI (U251 glioblastoma): 29.5 µM | GI50 (786-0 renal): 14.1 µM | TGI (786-0 renal): 27.4 µM | GI50 (NCI/ADR-RES ovarian): 15.7 µM | TGI (NCI/ADR-RES ovarian): 29.1 µM | GI50 (CAKI-1 renal): 16.8 µM | TGI (CAKI-1 renal): 30.5 µM | GI50 (HOP-92 NSCLC): 16 µM | TGI (HOP-92 NSCLC): 29.4 µM | GI50 (SK-MEL-28 melanoma): 17.6 µM | TGI (SK-MEL-28 melanoma): 31.4 µM | GI50 (SK-OV-3 ovarian): 17.1 µM | TGI (SK-OV-3 ovarian): 30.9 µM
